Results on one compound are retold here after US11643413B2, “9-(2-oxacycloalkyl)-9H-purine-2,6-diamine derivatives and their use for the treatment of skin disorders” (UNIVERZITA PALACKEHO V OLOMOUCI, priority 2017, dated 2023).

Broadly, the IC50 is the concentration needed to halve the response being measured.

Bounds are passed on as bounds.

Data set [1] in a line: Radical scavenging activity determined by ORAC. Particulars: relative to trolox; Mean ± SD (n = 3). As to the method:
The ability of compounds to scavenge free radicals in vitro was determined by Oxygen Radical Absorbance Capacity (ORAC) method. In brief, fluorescein (100 μl, […]) and 25 μl of compound solution were added into each working well in a 96-well microplate preincubated at 37° C. Thereafter, 25 μL of 250 mM AAPH was quickly added, microplate was shaken for 5 s and the fluorescence (Ex. 485 nm, Em. 510 nm) was read every 3 min over 90 min by using microplate reader Infinite 200 (TECAN, Switzerland). The net area under the curve was used to express antioxidant activity relative to trolox which was used as a standard.

Data set [2] in a line: in vivo. Particulars: both sexes, Wistar, rat, sc. The method, then:
The aim of the study was to investigate acute toxic effects of the test substance, after a single subcutaneous administration to Wistar rats. The testing was performed according to the methods: ČSN EN ISO 10993-11: Biologické hodnoceni zdravotnických prostředků—část 11: Zkoušky na systémovou toxicitu and OECD Test Guideline No. 420 Acute Oral Toxicity—Fixed Dose Proceduře. Adopted 17 Dec. 2001. The test substance 114 was administered in a single dose as solution in vehicle (olive oil), given subcutaneously to male and female Wistar rats. The dosing was performed sequentially. The pre-test (the sighting study) was performed with 1 female and 1 male for each dose level. The dose level of 30 mg/kg was used as the starting dose. No death of animal was recorded at the starting dose, therefore the following dose level was used (100 mg/kg). […] The presence of subcutaneously administered test substance at the dose level of 30 and 100 mg/kg was visible to second day after application. […] According to the study results the Maximum Tolerated Dose (subcutaneous) of the test substance for male and female rats is >100 mg/kg.

Data set [3] concerns NIH3T3 fibroblasts. The data set can be described thus: Peroxidation of membrane lipids, MDA by TBA method. It counts as cell-based, mouse. The conditions noted are these: FW = fresh weight. The method, then: A typical symptom associated with aging is the direct consequence of increased concentrations of reactive oxygen species and lipid peroxidation. […] MDA levels were measured using thiobarbituric acid (TBA method). […] The crude extract was centrifuged at 10,000×g for 5 minutes and 100 μl aliquots of the supernatant were mixed with 100 μl of 0.5% (w/v) TBA containing 0.1% (w/v) trichloroacetic acid. The resulting solution was then incubated for 30 min at 95° C. The samples were rapidly cooled on ice and centrifuged for 5 minutes at 1000×g. […] The newly prepared derivatives of the general formula thus have a protective function against the negative effects of reactive oxygen species that accumulate strongly in the tissues.

A short description of data set [4]: Calcein AM cytotoxicity, B10A.4 (first column). Particulars: mouse, B10A.4 immortalized bone marrow macrophages.
Description: (§1) One of the parameters used, as the basis for cytotoxicity assays, is the metabolic activity of viable cells. For example, a microtiter assay, which uses the Calcein AM, is now widely used to quantitate cell proliferation and cytotoxicity. […] Because only metabolically active cells cleave Calcein AM, these assays detect viable cells exclusively. The quantity of reduced Calcein AM corresponds to the number of vital cells in the culture.
(§2) Mouse fibroblasts NIH3T3; mouse immortalized bone marrow macrophages B2.4 and B10A.4, and BJ (human foreskin fibroblasts) were used for routine screening of compounds. The cells were maintained in Nunc/Corning 80 cm^2 plastic tissue culture flasks and cultured in cell culture medium (DMEM with 5 g/l glucose, 2 mM glutamine, 100 U/ml penicillin, 100 μg/ml streptomycin, 10% fetal calf serum and sodium bicarbonate).
(§3) The cell suspensions that were prepared and diluted according to the particular cell type and the expected target cell density (2.500-30.000 cells per well based on cell growth characteristics) were added by pipette (80 μl) into 96/well microtiter plates. Inoculates were allowed a pre-incubation period of 24 hours at 37° C. and 5% CO2 for stabilisation. Four-fold dilutions of the intended test concentration were added at time zero in 20 μl aliquots to the microtiter plate wells. Usually, the compound tested was evaluated at six 4-fold dilutions. […] All compound concentrations were examined in duplicates. Incubations of cells with the tested compounds lasted for 72 hours at 37° C., in 5% CO2 atmosphere and 100% humidity. At the end of the incubation period, the cells were assayed by using Calcein AM. Ten microliters of the stock solution were pipetted into each well and incubated for 1 hour. Fluorescence (FD) was measured with the Labsystem FIA Reader Fluoroscan Ascent (UK).
Data set [5] deals with Escherichia coli WP2 uvrA strain. Nature of the data set: Ames test (Bacterial Reverse Mutation Test), E. coli. The format is cell-based. The conditions noted are these: 10-1000 μg per plate; without as well as with metabolic activation. As to the method: The test substance was (114) assayed for the mutagenicity by the Bacterial Reverse Mutation Test. The performed test was based on EU method B.13/14 Mutagenicity—Reverse mutation test using bacteria, which is analogous to the OECD Test Guideline No. 471. Four indicator Salmonella typhimurium strains TA 98, TA 100, TA 1535, TA 1537 and one indicator Escherichia coli WP2 uvrA strain were used. The test substance was dissolved in dimethylsulfoxide (DMSO) and assayed in doses of 10-1000 μg per plate, which were applied to plates in volume of 0.1 mL. Experiments were performed without as well as with metabolic activation with a supernatant of rat liver and a mixture of cofactors. The working procedure described is in accordance with the documents Method B.13/14, Mutagenicity: Reverse Mutation Test Using Bacteria, Council Regulation (EC) No. 440/2008. Published in O.J. L 142, 2008 and OECD Test Guideline 471, Bacterial Reverse Mutation Test. Adopted Jul. 21, 1997. In the arrangement given above, the test substance was non-mutagenic for all the used tester strains without as well as with metabolic activation.
On the technique in general: In the Ames test, an excess of revertant colonies over the control signals mutagenicity.

Data set [6] is described as follows: Calcein AM cytotoxicity, BJ. The conditions noted are these: human, BJ foreskin fibroblasts.
Description: as §1, §2, §3

Consider `CN(C)c1nc(NCc2ccco2)c2ncn(C3CCCCO3)c2n1` (stereo not drawn) [Compound 114, 2-(Dimethylamino)-6-furfurylamino-9-(tetrahydro-2H-pyran-2-yl)-9H-purine], for which, in data set [1], the “ORAC (compound/trolox)” value was 0.211 ± 0.018. The same compound displayed an MTD in data set [2] above 100 mg/kg. In data set [3], this compound came in with an MDA of 8.8 nmol/g FW. The IC50 at 72 h in data set [4] and in data set [6] was above 167 µM in each case. Moreover, the mutagenicity result in data set [5] was “non-mutagenic”.
